Assay results taken from patent US8465983B1, “Detection and delivery systems utilizing supported lipid bilayers” (priority 2005, dated 2013).

How the values were obtained:
[1] = test system: cholesterol (10%, molar ratio) containing lipid membrane on porous particles; assay: Release of dye from porous particles coated with cholesterol-containing lipid membrane by streptolysin-O; type: biochemical; details: even at low concentrations; 25° C. and 37° C.
Protocol: FIGS. 22A-B illustrate one aspect of the invention—drug and/or dye release from the present lipid-coated particles. FIG. 22A is a graph showing release of dye from porous particles (containing dye inside) where the particles are coated with a cholesterol (10%, molar ratio) containing lipid membrane. As increasing amounts of streptolysin-O are added (solid square symbols represent lower concentration than solid ovals), more dye is released. […] FIG. 22B illustrates how streptolysin-O can disrupt cholesterol-containing lipid bilayer membranes, leading to release of materials (e.g., drugs or antibiotics) enclosed within the membrane. Streptolysin-O is an anti-microbial protein that preferably binds to cholesterol and can disrupt cholesterol-containing membranes.

anionic phospholipids [2] = assay: Affinity of PLA2 for anionic phospholipids (Kim et al.); type: binding
anionic phospholipids [3] = details: Kim et al. 1997; cited from earlier work
[4] = test system: DMPG lipid bilayer supported on MS-PPE; assay: Superquenching flow cytometric assay for disruption of DMPG lipid bilayer supported on MS-PPE; type: biochemical; details: 10 μM AQS, no disruptor, real-time kinetics
Protocol: Lipid bilayers were disrupted by adding TRITON X-100 detergent to the bead suspension to a final concentration of 0.25% (w/v).
Bead suspensions of 2.5×10^5 DMPG-coated MS-PPE in 200 μL of PBS were analyzed using a FACScan flow cytometer (Becton-Dickinson, Sunnyvale, Calif.) with excitation at 488 nm. Fluorescence signals were acquired on FL-1 channel (525 nm) using log amplification and analyzed with the CellQuest software. Kinetic analysis of disruption of supported lipid bilayer by melittin was performed by acquiring real-time data with continuous mixing of samples (10^6 MS-PPE in 800 μl of PBS) using a magnetic stirrer. The raw data were analyzed using IDL Query software developed by Bruce Edwards (Cancer Center, University of New Mexico, Albuquerque, N. Mex.).
Because an anionic lipid was used to form a lipid bilayer around MS-PPE, it was expected that MLT will disrupt the DMPG lipid bilayer by such a detergent-like action. This was tested by adding 10 μM AQS to DMPG-coated MS-PPE followed by treatment with one of the following: TRITON X-100 detergent, synthetic MLT (sMLT), or natural MLT (nMLT) and immediately reading the fluorescence by flow cytometry. […] These histograms resemble the ones reported previously for MS-PPE, without a lipid coating, in absence and in presence of AQS.
From FIG. 18, the association constant (corresponding to the reciprocal of the point of half saturation) for nMLT and sMLT with DMPG were 5×10^6 M^−1 and 1.7×10^6 M^−1, respectively. […] Lower concentrations of nMLT, in comparison to sMLT, were required to disrupt the DMPG lipid bilayer. This might be attributed to the fact that nMLT contains some phospholipase A2 (PLA2) as a contaminant. PLA2 has a high affinity for anionic phospholipids, with an association constant of 0.5×10^10 M^−1 (Kim et al., Anal. Chem. 250, 109-116 (1997)), which is about 3000 fold higher than that of MLT. Although PLA2 activity requires calcium, which is not present in the experimental system, it has been reported that even upon addition of EDTA to natural MLT, PLA2 maintains its activity, probably due to formation of a tight complex with calcium with PLA2 (Dempsey, C. E. Biochim. Biophys. Acta 1990, 1031, 143-161).
The kinetics of disruption of supported lipid bilayer by MLT were monitored by measuring real-time changes in fluorescence intensity by flow cytometry (FIG. 19). Suspensions of 10^6 DMPG-coated MS-PPE in 800 μL of PBS were treated with AQS at a final concentration of 10 μM, then with either sMLT, TRITON X-100 detergent, or no treatment. […] Treatment with sMLT in the absence of AQS led to an increase in normalized fluorescence (FIG. 19, trace A). This can be attributed to disruption of the lipid bilayer by sMLT, and is consistent with a reversal of the slight quenching of fluorescence caused by the formation of a DMPG lipid bilayer over MS-PPE. Addition of AQS alone to DMPG-coated MS-PPE (FIG. 19, trace C) led to a 20% reduction in fluorescence as reported earlier. Addition of TRITON X-100 detergent to DMPG-coated MS-PPE after the addition of AQS (first dip in trace E, FIG. 19) caused immediate decrease in fluorescence to ˜10% of its original value (second dip in trace E, FIG. 19). In contrast, addition of sMLT, after the addition of AQS, (FIG. 19, trace D) led to a gradual reduction of fluorescence intensity to ˜20% of the original value. Although MLT forms dimers at high concentrations (Dempsey, C. E. Biochim. Biophys. Acta 1990, 1031, 143-161), it is monomeric at the concentrations used in this study. On the other hand, TRITON X-100 detergent forms micelles at the concentration used in this study.

[5] = Superquenching of MS-PPE by AQS, flow cytometry; details: 10 μM AQS, 2.5×10^5 MS-PPE in 200 μL PBS
Protocol: Bead suspensions of 2.5×10^5 PPE-coated microspheres in 200 μL PBS were analyzed using a FACScan flow cytometer (Becton-Dickinson, Sunnyvale, Calif.) with excitation at 488 nm. Fluorescence signals were acquired on the FL-1 channel (525 nm) using log amplification and analyzed with the CellQuest software.
The effect of the quencher, AQS, on the fluorescence of MS-PPE was determined by adding different concentrations of AQS and immediately reading the fluorescence by flow cytometry (FIG. 14A) or by fluorimetry (FIG. 14B). Adding AQS to the suspension of MS-PPE decreased the fluorescence emission intensity in an AQS-concentration-dependent manner (FIGS. 14A and B). The quenching of the MS-PPE as detected by both fluorimetry and flow cytometry, could be described by a conventional Stern-Volmer equation: Io/I=1+KSV[Q] where Io and I represent the fluorescence intensities in the absence and in presence of the AQS, and KSV is the Stern-Volmer quenching constant. However, the fluorimeter was not sensitive enough to detect the lower fluorescence (higher quenching) when AQS was added to MS-PPE at concentrations higher than 5 μM. The values of KSV obtained by flow cytometry and fluorimetry were 0.78×10^6 M^−1, and 0.79×10^6 M^−1, respectively. The correlation coefficient for the more sensitive flow cytometry was higher than that obtained by fluorimetry. […]

Compound: streptolysin-O: anti-microbial protein that preferably binds to cholesterol and can disrupt cholesterol-containing membranes
- release of dye compared with control without streptolysin-O [1]: greater than observed for control

Compound: PLA2: phospholipase A2, lipolytic enzyme, contaminant of natural melittin
- association constant higher than that of MLT (anionic phospholipids [2]): about 3000 fold
- association constant (anionic phospholipids [3]): 5e+09 M⁻¹

Compound: O=C1c2ccc(S(=O)(=O)O)cc2C(=O)c2ccc(S(=O)(=O)O)cc21 [AQS, 9,10-anthraquinone-2,6-disulfonic acid]
- reduction in fluorescence of DMPG-coated MS-PPE on addition of AQS alone [4]: 20%
- reduction in fluorescence (normalized mean channel fluorescence) [5]: 90%
